This note sets out measurements from ChEMBL document CHEMBL1150976, “The selectivity of protein kinase inhibitors: a further update” (Biochem J, 2007).

The structures appear in SMILES notation.

The target of one test is Aurora kinase B (Homo sapiens, UniProt Q96GD4). In words: Percentage Aurora B activity remaining in the presence of 0.1uM inhibitor. The settings on record: filed as antagonist.
Test [1] concerns the target Cyclin-dependent kinase 2/cyclin A (Homo sapiens) (UniProt P24941+P20248+P78396). In words: Percentage CDK2-cyclinA activity remaining in the presence of 0.1uM inhibitor. In kind it is protein-complex assay. As to conditions: filed as antagonist.
Test [2] addresses T1, Dual specificity tyrosine-phosphorylation-regulated kinase 2 (Homo sapiens) (UniProt Q92630).
T1 sequence (whole entry): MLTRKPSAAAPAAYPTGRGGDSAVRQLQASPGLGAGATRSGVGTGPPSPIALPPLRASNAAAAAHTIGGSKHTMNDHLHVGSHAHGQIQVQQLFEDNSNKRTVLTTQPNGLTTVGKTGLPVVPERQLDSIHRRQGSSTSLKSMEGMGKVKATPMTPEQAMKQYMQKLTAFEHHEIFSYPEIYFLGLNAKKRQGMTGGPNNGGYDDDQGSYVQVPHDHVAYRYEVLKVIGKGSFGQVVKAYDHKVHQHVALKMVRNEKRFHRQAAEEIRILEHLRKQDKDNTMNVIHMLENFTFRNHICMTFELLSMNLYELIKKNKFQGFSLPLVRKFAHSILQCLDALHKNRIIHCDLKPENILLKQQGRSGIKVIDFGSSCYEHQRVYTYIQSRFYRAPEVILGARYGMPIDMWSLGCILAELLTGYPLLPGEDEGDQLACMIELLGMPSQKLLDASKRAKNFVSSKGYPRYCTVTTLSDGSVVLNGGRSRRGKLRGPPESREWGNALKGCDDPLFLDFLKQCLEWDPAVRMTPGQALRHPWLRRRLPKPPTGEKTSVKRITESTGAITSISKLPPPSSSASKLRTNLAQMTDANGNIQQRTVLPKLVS
In words: Percentage DYRK2 activity remaining in the presence of 0.1uM inhibitor. The settings on record: filed as antagonist.

Test [3] deals with Myosin light chain kinase, smooth muscle (Homo sapiens, UniProt Q15746). In words: Percentage SmMLCK activity remaining in the presence of 0.1uM inhibitor. As to conditions: filed as antagonist.
Test [4] has as its target Ribosomal protein S6 kinase alpha-1 (Homo sapiens) (UniProt Q15418). In words: Percentage RSK1 activity remaining in the presence of 0.1uM inhibitor. As to conditions: filed as antagonist.
The target in test [5] is Serine/threonine-protein kinase Nek7 (Homo sapiens) (UniProt Q8TDX7). Nature of the test: Percentage NEK7 activity remaining in the presence of 0.1uM inhibitor.
For another test, the species on record is Homo sapiens. In words: Percentage PHK activity remaining in the presence of 0.1uM inhibitor. As to conditions: filed as antagonist.
The target of test [6] is Mitogen-activated protein kinase 3 (Homo sapiens) (UniProt P27361). In words: Percentage ERK1 activity remaining in the presence of 0.1uM inhibitor. The settings on record: filed as antagonist.
Test [7] concerns the target Mitogen-activated protein kinase 1 (Homo sapiens) (UniProt P28482). Nature of the test: Percentage ERK2 activity remaining in the presence of 0.1uM inhibitor. The settings on record: filed as antagonist.
Test [8] addresses RAC-alpha serine/threonine-protein kinase (Homo sapiens) (UniProt P31749). Nature of the test: Percentage PKBalpha activity remaining in the presence of 0.1uM inhibitor.
Test [9] addresses Serine/threonine-protein kinase Chk2 (Homo sapiens) (UniProt O96017). In words: Percentage CHK2 activity remaining in the presence of 0.1uM inhibitor. The settings on record: filed as antagonist.
Test [10] concerns the target T2, MAP kinase-activated protein kinase 5 (Homo sapiens) (UniProt Q8IW41).
T2 sequence (whole entry): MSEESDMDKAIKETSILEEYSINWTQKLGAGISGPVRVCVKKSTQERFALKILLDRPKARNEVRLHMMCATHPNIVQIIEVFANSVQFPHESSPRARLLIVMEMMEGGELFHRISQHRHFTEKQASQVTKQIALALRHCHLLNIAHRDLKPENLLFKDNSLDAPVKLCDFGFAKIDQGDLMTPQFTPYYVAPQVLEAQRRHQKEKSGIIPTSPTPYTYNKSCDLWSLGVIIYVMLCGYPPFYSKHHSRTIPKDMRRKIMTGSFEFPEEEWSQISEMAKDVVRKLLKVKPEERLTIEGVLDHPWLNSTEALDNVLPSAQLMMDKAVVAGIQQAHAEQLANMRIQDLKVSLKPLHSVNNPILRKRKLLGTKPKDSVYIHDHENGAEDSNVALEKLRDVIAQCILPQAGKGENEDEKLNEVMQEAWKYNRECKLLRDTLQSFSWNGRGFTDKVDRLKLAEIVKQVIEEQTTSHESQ
Nature of the test: Percentage PRAK activity remaining in the presence of 0.1uM inhibitor.

For test [11], the target named is MAP kinase-interacting serine/threonine-protein kinase 1 (Homo sapiens) (UniProt Q9BUB5). In words: Percentage MNK1 activity remaining in the presence of 0.1uM inhibitor.
Test [12] addresses Tyrosine-protein kinase CSK (Homo sapiens, UniProt P41240). Nature of the test: Percentage CSK activity remaining in the presence of 0.1uM inhibitor.
The target of test [13] is Serine/threonine-protein kinase PLK1 (Homo sapiens, UniProt P53350). Nature of the test: Percentage PLK1 activity remaining in the presence of 0.1uM inhibitor.
For test [14], the target named is T3, Serine/threonine-protein kinase Chk1 (Homo sapiens) (UniProt O14757).
T3 sequence (whole entry): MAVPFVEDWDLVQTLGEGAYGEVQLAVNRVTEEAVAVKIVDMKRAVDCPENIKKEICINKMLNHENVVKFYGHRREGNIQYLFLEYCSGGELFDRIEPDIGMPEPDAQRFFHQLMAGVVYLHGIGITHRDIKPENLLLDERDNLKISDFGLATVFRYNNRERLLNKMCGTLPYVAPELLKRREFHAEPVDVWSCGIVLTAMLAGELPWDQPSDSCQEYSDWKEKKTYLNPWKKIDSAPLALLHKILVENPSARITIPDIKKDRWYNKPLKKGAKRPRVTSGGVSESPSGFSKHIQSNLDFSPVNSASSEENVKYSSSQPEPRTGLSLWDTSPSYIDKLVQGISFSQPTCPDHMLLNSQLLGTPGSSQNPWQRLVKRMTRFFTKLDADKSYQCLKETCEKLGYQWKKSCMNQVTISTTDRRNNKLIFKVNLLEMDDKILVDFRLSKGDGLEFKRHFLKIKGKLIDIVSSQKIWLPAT
Nature of the test: Percentage CHK1 activity remaining in the presence of 0.1uM inhibitor. As to conditions: filed as antagonist.

For test [15], the target named is Protein kinase C alpha type (Homo sapiens) (UniProt P17252). Nature of the test: Percentage PKCalpha activity remaining in the presence of 0.1uM inhibitor. As to conditions: filed as antagonist.
Test [16] has as its target Homeodomain-interacting protein kinase 2 (Homo sapiens) (UniProt Q9H2X6). In words: Percentage HIPK2 activity remaining in the presence of 0.1uM inhibitor.
In test [17] the target is Serine/threonine-protein kinase pim-3 (Homo sapiens, UniProt Q86V86). Nature of the test: Percentage PIM3 activity remaining in the presence of 0.1uM inhibitor. As to conditions: filed as antagonist.
For test [18], the target named is Mitogen-activated protein kinase 9 (Homo sapiens, UniProt P45984). Nature of the test: Percentage JNK2 activity remaining in the presence of 0.1uM inhibitor.
Test [19] concerns the target Casein kinase II (Homo sapiens) (UniProt P67870+P68400+P19784). In words: Percentage CK2 activity remaining in the presence of 0.1uM inhibitor. In kind it is protein-complex assay.
In test [20] the target is MAP kinase-activated protein kinase 3 (Homo sapiens) (UniProt Q16644). In words: Percentage MAPKAPK3 activity remaining in the presence of 0.1uM inhibitor.
Chain of MAP kinase-activated protein kinase 3 (Homo sapiens) (Q16644 whole entry, looked up): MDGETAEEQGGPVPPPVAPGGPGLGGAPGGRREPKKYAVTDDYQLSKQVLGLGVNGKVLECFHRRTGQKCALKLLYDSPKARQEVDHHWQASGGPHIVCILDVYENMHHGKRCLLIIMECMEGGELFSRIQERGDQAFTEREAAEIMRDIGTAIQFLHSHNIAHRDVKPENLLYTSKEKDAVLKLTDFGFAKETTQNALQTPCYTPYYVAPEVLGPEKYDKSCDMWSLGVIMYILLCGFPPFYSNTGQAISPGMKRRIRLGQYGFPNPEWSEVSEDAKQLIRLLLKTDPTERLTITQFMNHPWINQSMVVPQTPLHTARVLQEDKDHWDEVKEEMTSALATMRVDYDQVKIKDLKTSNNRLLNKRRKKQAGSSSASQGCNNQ

Chain of Ribosomal protein S6 kinase alpha-1 (Homo sapiens) (Q15418 whole entry): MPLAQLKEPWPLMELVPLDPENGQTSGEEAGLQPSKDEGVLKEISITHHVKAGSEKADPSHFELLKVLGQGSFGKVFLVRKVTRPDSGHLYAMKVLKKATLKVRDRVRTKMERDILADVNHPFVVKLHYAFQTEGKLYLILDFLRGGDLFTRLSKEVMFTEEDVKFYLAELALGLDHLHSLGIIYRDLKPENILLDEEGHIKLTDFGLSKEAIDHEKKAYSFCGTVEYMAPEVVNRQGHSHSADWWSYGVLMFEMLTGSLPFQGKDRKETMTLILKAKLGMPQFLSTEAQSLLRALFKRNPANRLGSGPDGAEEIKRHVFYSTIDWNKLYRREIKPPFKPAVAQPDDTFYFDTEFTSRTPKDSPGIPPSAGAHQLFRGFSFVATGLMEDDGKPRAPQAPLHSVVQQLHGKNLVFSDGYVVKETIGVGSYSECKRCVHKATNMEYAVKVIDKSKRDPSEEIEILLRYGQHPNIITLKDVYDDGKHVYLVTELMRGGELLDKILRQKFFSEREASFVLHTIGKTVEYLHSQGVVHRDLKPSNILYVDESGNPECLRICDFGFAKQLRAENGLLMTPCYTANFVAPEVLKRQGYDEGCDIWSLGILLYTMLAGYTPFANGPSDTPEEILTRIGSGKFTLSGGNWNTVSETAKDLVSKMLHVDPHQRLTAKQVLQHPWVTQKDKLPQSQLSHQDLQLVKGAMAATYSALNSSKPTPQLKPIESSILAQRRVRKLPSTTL
Chain of Serine/threonine-protein kinase Chk2 (Homo sapiens) (O96017 whole entry): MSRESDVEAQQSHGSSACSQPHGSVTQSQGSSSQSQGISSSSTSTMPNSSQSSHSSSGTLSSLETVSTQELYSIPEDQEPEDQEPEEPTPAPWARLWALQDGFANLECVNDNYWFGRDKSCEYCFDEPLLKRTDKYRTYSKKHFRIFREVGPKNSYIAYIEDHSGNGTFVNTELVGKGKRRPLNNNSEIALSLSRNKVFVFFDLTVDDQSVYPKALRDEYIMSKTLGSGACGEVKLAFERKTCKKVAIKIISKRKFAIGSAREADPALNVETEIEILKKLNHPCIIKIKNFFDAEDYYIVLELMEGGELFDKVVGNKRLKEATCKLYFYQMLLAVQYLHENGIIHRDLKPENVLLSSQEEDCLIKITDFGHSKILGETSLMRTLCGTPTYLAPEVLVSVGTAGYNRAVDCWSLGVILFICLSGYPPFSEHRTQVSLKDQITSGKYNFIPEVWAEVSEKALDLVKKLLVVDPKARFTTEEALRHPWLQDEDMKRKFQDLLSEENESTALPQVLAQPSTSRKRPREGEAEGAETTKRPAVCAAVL
Chain of Serine/threonine-protein kinase PLK1 (P53350 whole entry): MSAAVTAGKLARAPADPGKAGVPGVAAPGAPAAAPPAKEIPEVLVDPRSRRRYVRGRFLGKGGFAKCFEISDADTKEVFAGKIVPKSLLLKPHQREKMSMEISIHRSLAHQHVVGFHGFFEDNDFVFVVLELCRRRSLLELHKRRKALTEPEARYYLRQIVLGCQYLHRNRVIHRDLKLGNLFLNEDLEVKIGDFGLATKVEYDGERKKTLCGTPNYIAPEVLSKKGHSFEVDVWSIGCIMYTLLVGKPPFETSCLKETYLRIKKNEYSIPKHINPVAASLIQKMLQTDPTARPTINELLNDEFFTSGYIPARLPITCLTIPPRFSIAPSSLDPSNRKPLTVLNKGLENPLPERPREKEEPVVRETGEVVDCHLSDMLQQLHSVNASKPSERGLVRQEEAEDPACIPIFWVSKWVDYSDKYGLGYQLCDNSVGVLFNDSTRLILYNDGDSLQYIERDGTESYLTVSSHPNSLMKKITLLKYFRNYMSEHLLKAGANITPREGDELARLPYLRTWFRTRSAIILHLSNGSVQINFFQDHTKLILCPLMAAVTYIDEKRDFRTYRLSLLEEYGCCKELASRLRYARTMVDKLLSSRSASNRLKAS
Chain of Mitogen-activated protein kinase 1 (Homo sapiens) (P28482 whole entry): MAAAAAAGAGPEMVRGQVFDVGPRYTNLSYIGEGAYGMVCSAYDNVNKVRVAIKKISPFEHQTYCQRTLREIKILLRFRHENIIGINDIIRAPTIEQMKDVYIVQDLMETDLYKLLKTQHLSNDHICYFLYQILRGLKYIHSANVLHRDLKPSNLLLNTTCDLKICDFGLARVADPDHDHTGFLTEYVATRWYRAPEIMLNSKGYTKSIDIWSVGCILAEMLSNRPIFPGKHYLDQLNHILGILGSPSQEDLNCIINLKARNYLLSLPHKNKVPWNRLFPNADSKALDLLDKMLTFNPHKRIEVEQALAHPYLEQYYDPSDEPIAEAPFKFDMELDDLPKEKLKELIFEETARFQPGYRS
Chain of Aurora kinase B (Q96GD4 whole entry): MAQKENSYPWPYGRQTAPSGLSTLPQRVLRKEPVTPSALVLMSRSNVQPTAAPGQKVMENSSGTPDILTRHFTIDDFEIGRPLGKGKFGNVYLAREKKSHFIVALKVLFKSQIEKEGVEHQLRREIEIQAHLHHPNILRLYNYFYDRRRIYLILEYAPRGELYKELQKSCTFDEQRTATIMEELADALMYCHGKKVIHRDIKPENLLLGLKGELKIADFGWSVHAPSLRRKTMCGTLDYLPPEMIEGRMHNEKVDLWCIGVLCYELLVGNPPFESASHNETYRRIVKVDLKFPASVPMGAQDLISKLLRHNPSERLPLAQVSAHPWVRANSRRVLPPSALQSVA
Chain of Mitogen-activated protein kinase 3 (Homo sapiens) (P27361 whole entry): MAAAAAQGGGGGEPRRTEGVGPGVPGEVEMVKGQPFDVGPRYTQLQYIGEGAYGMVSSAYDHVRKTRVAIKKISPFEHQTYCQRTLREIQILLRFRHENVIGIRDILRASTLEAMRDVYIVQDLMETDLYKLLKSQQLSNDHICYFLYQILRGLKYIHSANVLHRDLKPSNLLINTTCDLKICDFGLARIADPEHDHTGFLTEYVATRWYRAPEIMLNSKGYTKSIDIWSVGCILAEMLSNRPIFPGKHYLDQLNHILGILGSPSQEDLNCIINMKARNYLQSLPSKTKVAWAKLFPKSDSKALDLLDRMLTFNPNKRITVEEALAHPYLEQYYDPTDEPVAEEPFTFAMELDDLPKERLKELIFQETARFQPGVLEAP
Chain of MAP kinase-interacting serine/threonine-protein kinase 1 (Homo sapiens) (Q9BUB5 whole entry, looked up): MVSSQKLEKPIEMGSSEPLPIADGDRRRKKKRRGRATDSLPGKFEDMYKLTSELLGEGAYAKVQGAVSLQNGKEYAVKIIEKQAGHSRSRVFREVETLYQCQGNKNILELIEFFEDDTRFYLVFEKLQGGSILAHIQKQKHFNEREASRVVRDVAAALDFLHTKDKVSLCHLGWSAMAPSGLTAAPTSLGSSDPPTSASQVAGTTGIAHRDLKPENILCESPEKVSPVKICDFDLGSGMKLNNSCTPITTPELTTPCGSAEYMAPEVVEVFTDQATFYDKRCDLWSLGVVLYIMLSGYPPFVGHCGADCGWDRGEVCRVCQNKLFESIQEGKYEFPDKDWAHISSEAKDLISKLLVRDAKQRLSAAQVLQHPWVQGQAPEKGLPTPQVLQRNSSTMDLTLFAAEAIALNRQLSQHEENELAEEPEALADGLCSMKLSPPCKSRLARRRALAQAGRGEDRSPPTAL

Take `Cn1c2ccccc2c2c3c(c4c5ccccc5n(CCC#N)c4c21)CNC3=O`: the Activity at Aurora kinase B was 17%; in test [1] it was 8%; in test [2], 49%; in [3], 40%; in test [4], 6%; in test [5] it was 98%. In addition, the Activity is 1% in the test listed under Homo sapiens; 44% in test [6]; 41% in [7]; 96% in [8]; 43% in test [9]; 76% in test [10]. The Activity in test [11] was 67%; in [12], 75%; in test [13], 80%; in test [14], 1%; in test [15], 2%; in [16], 63%. Besides, the Activity in [17] is 7%; in test [18], 68%; in test [19], 88%; in [20] it was 95%.
